Experimental data published in patent US9315475B2 (MERCK SHARP & DOHME CORP., priority 2011, dated 2016).

Assays:
wildtype HIV-1 protease = target: T1, wildtype HIV-1 protease (Human immunodeficiency virus type 1 group M subtype B, UniProt P04585); assay: Assay for inhibition of microbial expressed HIV protease (Pepcleav); type: biochemical; conditions: wild type HIV-1 protease expressed in E. coli, peptide substrate, pH 5.5; mean of at least two independent experiments; read-out: Pepcleav
T1 construct: the wildtype HIV-1 protease (which was expressed in Escherichia coli); made in house; host or cells: Escherichia coli
Summary of the method: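 Cleavage of 400 μM peptide substrate Val-Ser-Gln-Asn-(βnaphthyl)Ala-Pro-Ile-Val by 20 pM wild-type enzyme (E. coli-expressed) ran 1 h at 30 °C after 30 min inhibitor preincubation, pH 5.5 acetate buffer. Inhibition derived from product peak area by C18 LC with multiple-reaction-monitoring MS after formic acid quench.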

HIV-1 (H9IIIB strain) = assay: Antiviral acute infection assay in cell culture (Spread); type: cell-based; conditions: Human immunodeficiency virus 1, T-lymphoid, HIV-1 H9IIIB infection of MT-4 human T-lymphoid cells in 10% FBS; mean of at least two independent experiments
Excerpt: Antiviral Assays in Cell Culture (“Spread”)
Acute Infection Assay (“Spread”) data were generated using HIV-1 (H9IIIB strain) infection of MT-4 human T-lymphoid cells in 10% FBS, and according to the methods disclosed by J. P. Vacca et al, “L-735,524: An orally bioavailable human immunodeficiency virus type 1 protease inhibitor,” Proc. Natl. Acad. Sci. USA, Vol. 91, pp. 4096-4100 (April 1994).

Work on `NC(=O)OC[C@@H]1CO[C@H](CCc2c(F)cccc2NC(=O)C[C@@H](c2ccc(F)cc2)c2ccncc2F)CN1` [Example 157, {(3S,6R)-6-[2-(2-fluoro-6-{[(3S)-3-(4-fluorophenyl)-3-(3-fluoropyridin-4-yl)propanoyl]amino}phenyl)ethyl]morpholin-3-yl}methyl carbamate] yielded an IC50 (wildtype HIV-1 protease) of 9.6 nM and an EC50 (HIV-1 (H9IIIB strain)) of 18 nM.

In the case of `N[C@H](C(=O)Nc1cncc(F)c1CC[C@@H]1CN[C@H](COC(=O)NCC(F)(F)F)CO1)[C@H](c1ccc(F)cc1)c1ccc(Cl)c(F)c1` [Example 221, (βR)-β-(4-chloro-3-fluorophenyl)-4-fluoro-N-(5-fluoro-4-{2-[(2R,5S)-5-({[(2,2,2-trifluoro-ethyl)carbamoyl]oxy}methyl)morpholin-2-yl]ethyl}pyridin-3-yl)-L-phenylalaninamide], the IC50 (wildtype HIV-1 protease) is reported as 1.1 nM and the EC50 (HIV-1 (H9IIIB strain)) is reported as 22 nM.

For `N[C@H](C(=O)Nc1cncc(F)c1CC[C@@H]1CN[C@H](COC(=O)NCc2ccc3ccccc3n2)CO1)C(c1ccc(F)cc1)c1ccc(F)cc1` [Example 243, {(3S,6R)-6-[2-(3-fluoro-5-{[4-fluoro-β-(4-fluorophenyl)-L-phenylalanyl]amino}pyridin-4-yl)ethyl]morpholin-3-yl}methyl (quinolin-2-ylmethyl)carbamate], the IC50 (wildtype HIV-1 protease) was 24 nM and the EC50 (HIV-1 (H9IIIB strain)) was 240 nM.

Work on `N[C@H](C(=O)Nc1cncc(F)c1CC[C@@H]1CNC(COC(=O)NCC(F)(F)F)CO1)[C@@H](c1ccc(F)cc1)c1cc(F)cc(F)c1` (stereo in doubt) [Example 90, (2S,3S)-2-Amino-3-(4-fluorophenyl)-3-(3,5-difluorophenyl)-N-(5-fluoro-4-(2-((2R,5R)-5-(2,2,2-trifluoroethylaminocarbonyloxymethyl)morpholine-2-yl)ethyl)pyridin-3-yl)propanamide] yielded an IC50 (wildtype HIV-1 protease) of 2.4 nM and an EC50 (HIV-1 (H9IIIB strain)) of 49 nM.

For `COC(=O)N[C@H](C(=O)Nc1cccc(F)c1CC[C@@H]1CN[C@H](COC(=O)NCC(F)(F)F)CO1)[C@@H](c1ccc(F)cc1)c1cccc(OC(F)(F)F)c1` [Example 303, (βS)-4-fluoro-N-(3-fluoro-2-{2-[(2R, 5S)-5-({[(2,2,2-trifluoroethyl)carbamoyl]oxy}methyl)morpholin-2-yl]ethyl}phenyl)-Nα-(methoxy-carbonyl)-β-[3-(trifluoromethoxy)phenyl]-L-phenylalaninamide], the IC50 (wildtype HIV-1 protease) was 5.3 nM and the EC50 (HIV-1 (H9IIIB strain)) was 24 nM.

`N[C@H](C(=O)Nc1cccc(F)c1CC[C@@H]1CN[C@H](COC(=O)NCc2cccnc2)CO1)C(c1ccc(F)cc1)c1ccc(F)cc1` [Example 201, 4-fluoro-β-(4-fluorophenyl)-N-(3-fluoro-2-{2-[(2R,5S)-5-({[(pyridin-3-ylmethyl)carbamoyl]oxy}methyl)morpholin-2-yl]ethyl}phenyl)-L-phenylalaninamide] gave an IC50 (wildtype HIV-1 protease) of 28 nM and an EC50 (HIV-1 (H9IIIB strain)) of 80 nM.

In the case of `COC(=O)N[C@H](C(=O)Nc1cncc(F)c1CC[C@@H]1CN[C@H](COC(=O)NCC(F)(F)F)CO1)[C@H](c1ccc(F)cc1)c1cccc(F)c1` [Example 282, (βR)-4-fluoro-β-(3-fluorophenyl)-N-(5-fluoro-4-{2-[(2R,5S)-5-({[(2,2,2-trifluoroethyl)carbamoyl]oxy}methyl)morpholin-2-yl]ethyl}pyridin-3-yl)-Nα-(methoxycarbonyl)-L-phenylalaninamide], the IC50 (wildtype HIV-1 protease) is reported as 3.7 nM and the EC50 (HIV-1 (H9IIIB strain)) is reported as 25 nM.

`COC(=O)N[C@H](C(=O)Nc1cncc(F)c1CC[C@@H]1CN[C@H](COC(=O)NCC(F)(F)F)CO1)[C@H](c1ccc(F)cc1)c1ccc(F)c(F)c1` [Example 297, (βR)-3,4-difluoro-β-(4-fluorophenyl)-N-(5-fluoro-4-{2-[(2R,5S)-5-({[(2,2,2-trifluoroethyl)carbamoyl]oxy}methyl)morpholin-2-yl]ethyl}pyridin-3-yl)-Nα-(methoxycarbonyl)-L-phenylalaninamide] gave an IC50 (wildtype HIV-1 protease) of 1 nM and an EC50 (HIV-1 (H9IIIB strain)) of 15 nM.

Compound `N[C@H](C(=O)Nc1cncc(F)c1CC[C@@H]1CN[C@H](COC(=O)NCC(F)(F)F)CO1)[C@H](c1ccc(F)cc1)c1ccc2ccccc2c1` [Example 96, (βR)-4-Fluoro-N-(5-fluoro-4-{2-[(2R,5S)-5-({[(2,2,2-trifluoroethyl)carbamoyl]oxy}methyl)morpholin-2-yl]ethyl}pyridin-3-yl)-β-naphthalen-2-yl-L-phenylalaninamide] has an IC50 (wildtype HIV-1 protease) of 9.9 nM and an EC50 (HIV-1 (H9IIIB strain)) of 73 nM.

Compound `N[C@H](C(=O)Nc1cncc(F)c1CC[C@@H]1CN[C@H](COC(=O)NCc2cc3ccccc3cn2)CO1)C(c1ccc(F)cc1)c1ccc(F)cc1` [Example 239, {(3S,6R)-6-[2-(3-fluoro-5-{[4-fluoro-β-(4-fluorophenyl)-L-phenylalanyl]amino}pyridin-4-yl)ethyl]morpholin-3-yl}methyl (isoquinolin-3-ylmethyl)carbamatc] has an IC50 (wildtype HIV-1 protease) of 45 nM and an EC50 (HIV-1 (H9IIIB strain)) of 420 nM.

With `COC(=O)N[C@H](C(=O)Nc1cccc(F)c1CC[C@@H]1CN[C@H](COC(=O)NCC(F)(F)F)CO1)[C@H](c1ccc(F)cc1)c1ccc(OC)cc1` [Example 299, (βS)-β-(4-fluorophenyl)-N-(3-fluoro-2-{2-[(2R, 5S)-5-({[(2,2,2-trifluoroethyl)carbamoyl]oxy}methyl)morpholin-2-yl]ethyl}phenyl)-Nα-(methoxy-carbonyl)-O-methyl-L-tyrosinamide] the IC50 (wildtype HIV-1 protease) was 15 nM and the EC50 (HIV-1 (H9IIIB strain)) was 32 nM.

With `N[C@H](C(=O)Nc1cccc(F)c1CC[C@@H]1CN[C@H](COC(=O)NCC(F)(F)F)CO1)[C@H](c1ccc(F)cc1)c1ccc(F)c(F)c1` [Example 270, (βR)-β-(3,4-difluorophenyl)-4-fluoro-N-(3-fluoro-2-{2-[(2R,5S)-5-({[(2,2,2-trifluoroethyl)carbamoyl]oxy}methyl)morpholin-2-yl]ethyl}phenyl)-L-phenylalaninamide] the IC50 (wildtype HIV-1 protease) was 2.1 nM and the EC50 (HIV-1 (H9IIIB strain)) was 22 nM.

In the case of `CCOCCNC(=O)OC[C@@H]1CO[C@H](CCc2c(F)cncc2NC(=O)[C@@H](N)C(c2ccc(F)cc2)c2ccc(F)cc2)CN1` [Example 248, N-(4-{2-[(2R,5S)-5-({[(2-ethoxyethyl)carbamoyl]oxy}methyl)morpholin-2-yl]ethyl}-5-fluoropyridin-3-yl)-4-fluoro-β-(4-fluorophenyl)-L-phenylalaninamide], the IC50 (wildtype HIV-1 protease) is reported as 9.8 nM and the EC50 (HIV-1 (H9IIIB strain)) is reported as 55 nM.

`COC(=O)N[C@H](C(=O)Nc1cccc(F)c1CC[C@@H]1CN[C@H](COC(=O)NCC(F)(F)F)CO1)[C@@H](c1ccc(F)cc1)C1CCOCC1` [Example 130, (βR)-4-Fluoro-N-(3-fluoro-2-{2-[(2R,5S)-5-({[(2,2,2-trifluoroethyl)carbamoyl]oxy}methyl)morpholin-2-yl]ethyl}phenyl)-Nα-(methoxycarbonyl)-β-(tetrahydro-2H-pyran-4-yl)-L-phenylalaninamide] showed an IC50 (wildtype HIV-1 protease) of 68 nM and an EC50 (HIV-1 (H9IIIB strain)) of 26 nM.

With `COC(=O)N[C@H](C(=O)Nc1cccc(F)c1CC[C@@H]1CN[C@H](COC(=O)NCC(F)(F)F)CO1)[C@H](c1ccccc1)c1ccc2ccccc2c1` [Example 290, (βR)-N-(3-fluoro-2-{2-[(2R,5S)-5-({[(2,2,2-trifluoroethyl)carbamoyl]oxy}methyl)morpholin-2-yl]ethyl}phenyl)-Nα-(methoxycarbonyl)-β-naphthalen-2-yl-L-phenylalaninamide] the IC50 (wildtype HIV-1 protease) was 30 nM and the EC50 (HIV-1 (H9IIIB strain)) was 600 nM.

`COC(=O)N[C@H](C(=O)Nc1cncc(F)c1CC[C@@H]1CN[C@H](COC(=O)NCC(F)(F)F)CO1)[C@H](c1ccc(F)cc1)c1ccc(C(F)(F)F)cc1` [Example 286] showed an IC50 (wildtype HIV-1 protease) of 4.6 nM and an EC50 (HIV-1 (H9IIIB strain)) of 37 nM.
